Measurements as given in US12435095B2, “Substituted morpholines as ATR kinase inhibitors” (Shanghai Annova Biotechnology Co., Ltd., priority 2021, dated 2025).
Read-outs that look alike come from different tables or passages of the source.

Test system: human colon cancer LoVo cells
Assay: Cell proliferation inhibition assay (CellTiter-Glo)
Type: cell-based
Conditions: for IC50 / Emax: Homo sapiens; for IC50: read-out: LoVo IC50; for Emax: read-out: Max Inhibition
Excerpt: Experimental method: A CellTiter-Glo cell viability assay kit was used to test the inhibitory effect of the compounds on the in vitro proliferation of human colon cancer LoVo cells.
Experimental materials: LoVo cells (ATCC, Cat. No. CCL-29); F-12K medium (Invitrogen, Cat. No. 21127-022); fetal bovine serum (Biological Industries, Cat. No. 04-002-1A); GlutaMAX (Gibco, Cat. No. 35050-061); 0.25% trypsin-EDTA (Invitrogen, Cat. No. 25200-072); CellTiter-Glo kit (Promega, Cat. No. G7558).
Experimental procedure: (1) F-12K medium, fetal bovine serum and GlutaMAX were formulated into a complete medium for culturing LoVo cells; (2) well-grown LoVo cells were taken, digested with trypsin and transferred to a centrifuge tube, and centrifuged; the supernatant was discarded, and cells were resuspended by adding a fresh medium and counted by a Vi-CELL XR cell counter; the density of the cell suspension was adjusted to 25,000 to 30,000 cells/mL, and the cell suspension was added at 100 μL/well in a 96-well cell culture plate, while a blank control group was set up with no cells added, and the cell culture plate was incubated in a carbon dioxide incubator overnight; (3) a DMSO solution of the compound to be tested was dispensed into the above 96-well cell culture plate using an HP D300 ultra-micro sampler, with 0.5 μL of the solution per well and 10 concentrations for each compound (3× dilution), while a DMSO control group with no compound added was set up, and the plate was continued to be incubated in a carbon dioxide incubator for 96 hours; (4) the cell culture plate was taken out and equilibrated to room temperature, with 100 μL of a CellTiter-Glo reagent added to each well, and then the plate was kept away from light, shaken for 10 minutes and then incubated for 10 minutes; (5) the cell culture plate was put into EnSpire for plate reading, and the luminescence value RLU was recorded.
Data processing: (1) The inhibition rate was calculated from the luminescence values: “RLUDMSO” is the luminescence value of the DMSO control group without compound, “RLUblank” is the luminescence value of the blank control group without cells, and “RLUcompound” is the luminescence value of the compound test group, and the inhibition rate=[1−(RLUcompound−RLUblank)/(RLUDMSO−RLUblank)]×100%; (2) with curve fitting using the Excel add-on XLFit, the IC50 value was calculated.

[1] = LoVo cells, 96 hours, CellTiter-Glo

| SMILES | IC50 (LoVo, 96 h) | Emax (LoVo, 96 h) | IC50 [1] | Emax [1] | Max Inhibition [1] |
| --- | --- | --- | --- | --- | --- |
| C[C@@H]1COCCN1c1nc(-c2ccnc3[nH]ccc23)nc2c1ccn2S(=O)(=O)N(C)C [Compound 34, (R)—N,N-dimethyl-4-(3-methylmorpholinyl)-2-(1H-pyrrolo[2,3-b]pyridin-4-yl)-7H-pyrrolo[2,3-d]pyrimidine-7-sulfamide] | 290 nM | 93% | – | – | – |
| C[C@@H]1COCCN1c1nc(-c2cc(C#N)cc3[nH]ccc23)nc2c1ccn2S(C)(=O)=O [Compound 30, (R)-4-(4-(3-methylmorpholinyl)-7-(methylsulfonyl)-7H-pyrrolo[2,3-d]pyrimidin-2-yl)-1H-indol-6-carbonitrile] | – | – | 1060 nM | 93% | – |
| CCS(=O)(=O)n1ccc2c(N3CCOC[C@H]3C)nc(-c3ccnc4[nH]ccc34)nc21 [Compound 33, (R)-4-(7-(ethylsulfonyl)-2-(1H-pyrrolo[2,3-b]pyridin-4-yl)-7H-pyrrolo[2,3-d]pyrimidin-4-yl)-3-methylmorpholine] | – | – | 290 nM | – | 92% |
| C[C@@H]1COCCN1c1cc(-c2ccnc3[nH]ccc23)nc2c1ncn2S(C)(=O)=O [Compound 24, (R)-3-methyl-4-(3-(methylsulfonyl)-5-(1H-pyrrolo[2,3-b]pyridin-4-yl)-3H-imidazo[4,5-b]pyridin-7-yl)morpholine] | – | – | 1020 nM | – | 92% |
| C[C@@H]1COCCN1c1nc(-c2ccnc3[nH]ccc23)nc2c1cnn2S(C)(=O)=O [Compound 23, (R)-3-methyl-4-(1-(methylsulfonyl)-6-(1H-pyrrolo[2,3-b]pyridin-4-yl)-1H-pyrazolo[3,4-d]pyrimidin-4-yl)morpholine] | – | – | – | – | 92% |
| C[C@@H]1COCCN1c1cc(-c2cccc3[nH]ccc23)nc2c1ccn2S(C)(=O)=O [Compound 2, (R)-4-(6-(1H-indol-4-yl)-1-(methylsulfonyl)-1H-pyrrolo[2,3-b]pyridin-4-yl)-3-methylmorpholine] | – | – | 500 nM | – | 94% |
| C[C@@H]1COCCN1c1nc(-c2ccnc3[nH]ccc23)nc2c1ncn2S(C)(=O)=O [Compound 22, (R)-3-methyl-4-(9-(methylsulfonyl)-2-(1H-pyrrolo[2,3-b]pyridin-4-yl)-9H-purin-6-yl)morpholine] | – | – | 1040 nM | – | 93% |
| C[C@@H]1COCCN1c1cc(-c2cc(F)cc3[nH]ccc23)nc2c1ccn2S(C)(=O)=O [Compound 7, (R)-4-(6-(6-fluoro-1H-indol-4-yl)-1-(methylsulfonyl)-1H-pyrrolo[2,3-b]pyridin-4-yl)-3-methylmorpholine] | – | – | 420 nM | – | 95% |
| C[C@@H]1COCCN1c1nc(-c2ccnc3[nH]ccc23)nc2c1ccn2S(C)(=O)=O [Compound 17, (R)-3-methyl-4-(7-(methylsulfonyl)-2-(1H-pyrrolo[2,3-b]pyridin-4-yl)-7H-pyrrolo[2,3-d]pyrimidin-4-yl)morpholine] | – | – | 170 nM | – | 93% |
| C[C@@H]1COCCN1c1nc(-c2cc(F)cc3[nH]ccc23)nc2c1ccn2S(C)(=O)=O [Compound 20, (R)-4-(2-(6-fluoro-1H-indol-4-yl)-7-(methylsulfonyl)-7H-pyrrolo[2,3-d]pyrimidin-4-yl)-3-methylmorpholine] | – | – | 490 nM | – | 91% |
| C[C@@H]1COCCN1c1nc(-c2cc(Cl)cc3[nH]ccc23)nc2c1ccn2S(C)(=O)=O [Compound 31, (R)-4-(2-(6-chloro-1H-indol-4-yl)-7-(methylsulfonyl)-7H-pyrrolo[2,3-d]pyrimidin-4-yl)-3-methylmorpholine] | – | – | 570 nM | – | 93% |
| CC(n1ccc2c(N3CCOC[C@H]3C)cc(-c3ccnc4[nH]ccc34)nc21)S(C)(=O)=O (stereo partly shown) [Compound 5′, reference compound] | – | – | 1880 nM | – | – |
| CNc1nc2ccccc2n1-c1nc(N2CCOC[C@H]2C)c2ccn(S(C)(=O)=O)c2n1 [Compound 28, (R)—N-methyl-1-(4-(3-methylmorpholinyl)-7-(methylsulfonyl)-7H-pyrrolo[2,3-d]pyrimidin-2-yl)-1H-benzo[d]imidazol-2-amine] | – | – | 100 nM | 92% | – |
| C[C@@H]1COCCN1c1nc(-c2ccnc3[nH]ccc23)nc2c1ccn2S(=O)(=O)CCO [Compound 21, (R)-2-((4-(3-methylmorpholinyl)-2-(1H-pyrrolo[2,3-b]pyridin-4-yl)-7H-pyrrolo[2,3-d]pyrimidin-7-yl)sulfonyl)ethanol] | – | – | 710 nM | 92% | – |
| C[C@@H]1COCCN1c1nc(-c2ccnc3[nH]ccc23)cc2c1ccn2S(C)(=O)=O [Compound 26, (R)-3-methyl-4-(1-(methylsulfonyl)-6-(1H-pyrrolo[2,3-b]pyridin-4-yl)-1H-pyrrolo[3,2-c]pyridin-4-yl)morpholine] | – | – | 740 nM | – | 92% |
| C[C@@H]1COCCN1c1nc(-c2cncc3[nH]ccc23)nc2c1ccn2S(C)(=O)=O [Compound 19, (R)-3-methyl-4-(7-(methylsulfonyl)-2-(1H-pyrrolo[2,3-c]pyridin-4-yl)-7H-pyrrolo[2,3-d]pyrimidin-4-yl)morpholine] | – | – | 70 nM | – | 90% |
| Cc1cc(-c2nc(N3CCOC[C@H]3C)c3ccn(S(C)(=O)=O)c3n2)c2cc[nH]c2c1 [Compound 29, (R)-3-methyl-4-(2-(6-methyl-1H-indol-4-yl)-7-(methylsulfonyl)-7H-pyrrolo[2,3-d]pyrimidin-4-yl)morpholine] | – | – | 380 nM | – | 94% |
| C[C@@H]1COCCN1c1cc(-c2cncc3[nH]ccc23)nc2c1ccn2S(C)(=O)=O [Compound 3, (R)-3-methyl-4-(1-(methylsulfonyl)-6-(1H-pyrrolo[2,3-c]pyridin-4-yl)-1H-pyrrolo[2,3-b]pyridin-4-yl)morpholine] | – | – | 430 nM | – | 93% |
| COc1cc(-c2nc(N3CCOC[C@H]3C)c3ccn(S(C)(=O)=O)c3n2)c2cc[nH]c2c1 [Compound 32, (R)-4-(2-(6-methoxy-1H-indol-4-yl)-7-(methylsulfonyl)-7H-pyrrolo[2,3-d]pyrimidin-4-yl)-3-methylmorpholine] | – | – | 340 nM | – | 95% |
| C[C@@H]1COCCN1c1nc(-c2nc3ccccc3[nH]2)nc2c1ccn2S(C)(=O)=O [Compound 27, (R)-4-(2-(1H-benzo[d]imidazol-2-yl)-7-(methylsulfonyl)-7H-pyrrolo[2,3-d]pyrimidin-4-yl)-3-methylmorpholine] | – | – | 620 nM | – | 94% |
| CC(C)S(=O)(=O)n1ccc2c(N3CCOC[C@H]3C)cc(-c3ccnc4[nH]ccc34)nc21 [Compound 14, (R)-4-(1′-(isopropylsulfonyl)-1H,1′H-[4,6′-dipyrrolo[2,3-b]pyridin]-4′-yl)-3-methylmorpholine] | – | – | 2130 nM | 93% | – |
| C[C@@H]1COCCN1c1cc(-c2ccnc3[nH]ccc23)nc2c1ccn2S(=O)(=O)C1CC1 [Compound 15, (R)-4-(1′-(cyclopropylsulfonyl)-1H,1′H-[4,6′-dipyrrolo[2,3-b]pyridin]-4′-yl)-3-methylmorpholine] | – | – | 1270 nM | 94% | – |
| C[C@@H]1COCCN1c1cc(-c2ccnc3[nH]ccc23)nc2c1ccn2S(=O)(=O)N(C)C [Compound 16, (R)—N,N-dimethyl-4′-(3-methylmorpholinyl)-1H,1′H-[4,6′-dipyrrolo[2,3-b]pyridine]-1′-sulfamide] | – | – | 1820 nM | 93% | – |
| C[C@@H]1COCCN1c1nc(-c2cncc3[nH]ccc23)cc2c1ncn2S(C)(=O)=O [Compound 25, (R)-3-methyl-4-(1-(methylsulfonyl)-6-(1H-pyrrolo[2,3-c]pyridin-4-yl)-1H-imidazo[4,5-c]pyridin-4-yl)morpholine] | – | – | 240 nM | – | 89% |
| C[C@@H]1COCCN1c1cc(-c2ccnc3[nH]ccc23)nc2c1ccn2CS(C)(=O)=O [Compound 4′, reference compound] | – | – | 2340 nM | – | – |
| C[C@@H]1COCCN1c1nc(-c2cccc3[nH]ccc23)nc2c1ccn2S(C)(=O)=O [Compound 18, (R)-4-(2-(1H-indol-4-yl)-7-(methylsulfonyl)-7H-pyrrolo[2,3-d]pyrimidin-4-yl)-3-methylmorpholine] | – | – | 250 nM | – | 92% |
